Legend:
Test in all cases: MIC by broth microdilution (NCCLS M7-A5)
Serratia marcescens S6 = test system: Serratia marcescens S6
[1] = test system: Enterobacter aerogenes B1; conditions: E. aerogenes B1; + compound 323 and sulbactam, 4 mg/L each
[2] = test system: Pseudomonas aeruginosa 1973E
[3] = test system: Pseudomonas aeruginosa MK1184
[4] = test system: Klebsiella pneumoniae CF104
[5] = test system: Enterobacter aerogenes Zayakosky; conditions: for MIC of antibiotic: Enterobacter aerogenes Zayakosky 5
[6] = test system: Stenotrophomonas malthophilia 1AC736; conditions: Stenotrophomonas maltophilia 1AC736
Acinetobacter sp. J2 = conditions: Acinetobacter baumannii J2
Enterobacter cloacae P99 = test system: Enterobacter cloacae P99
[7] = test system: Acinetobacter baumannii J51; format: cell-based
Protocol: Antimicrobial activity of the compounds and of their combinations was determined against a selection of organisms according to the standard procedures described by the National Committee for Clinical Laboratory Standards (National Committee for Clinical Laboratory. Standards (2000). Methods for Dilution Antimicrobial Susceptibility Tests for Bacteria That Grow Aerobically-Fifth Edition: Approved Standard M7-A5. NCCLS, Wayne, Pa., USA).
In all cases the final concentration of DMSO incubated with the bacteria is less than or equal to 1%. […] Plates were incubated overnight at an appropriate temperature (30° C. or 37° C.) and optical densities assessed by eye. The MIC value is defined as the lowest compound concentration completely inhibiting visible growth of the test organism. When combinations between compounds of formula I with compounds of formula II and are evaluated the compounds of formula I are tested in dilution series as described above while the compounds of formula II and III-XIII were present in all wells at a constant concentration of 4 μg/mL each.

[8] = + 102 + clavulanate, 4 mg/L each
[9] = + 324 + clavulanate, 4 mg/L each

With `C[C@H]1[C@H](NC(=O)/C(=N\OC(C)(C)C(=O)O)c2csc(N)n2)C(=O)N1S(=O)(=O)O` [Aztreonam, aztreonam, reference compound] the MIC of antibiotic (Serratia marcescens S6; [8]) was 2 µg/mL, the MIC of antibiotic (Serratia marcescens S6; + 102 + sulbactam, 4 mg/L each) was 2 µg/mL and the “Minimal Inhibitory Concentration of antibiotic” value [1] was 8 mg/L. For the same compound, the MIC of antibiotic [2, 8] was 8 µg/mL, the MIC of antibiotic ([2]; + 102 + sulbactam, 4 mg/L each) was 4 µg/mL and the MIC of antibiotic ([3]; + 102 + sulbactam, 4 mg/L each) was 16 µg/mL. For the same compound, the MIC of antibiotic [4, 8] was 0.5 µg/mL, the MIC of antibiotic ([4]; + 102 + sulbactam, 4 mg/L each) was 1 µg/mL and the “Minimal Inhibitory Concentration of antibiotic” value ([5]; E. aerogenes Zayakosky, + compound 323 and sulbactam, 4 mg/L each) was 8 mg/L. The MIC of antibiotic [6, 8] was 4 µg/mL, the MIC of antibiotic ([6]; + 102 + sulbactam, 4 mg/L each) was 8 µg/mL and the MIC of antibiotic (Acinetobacter sp. J2; [8]) was 16 µg/mL. It also gave an MIC of antibiotic (Acinetobacter sp. J2; + 102 + sulbactam, 4 mg/L each) of 4 µg/mL.
For `CC1(C)[C@H](NC(=O)/C(=N\OCc2cc(=O)c(O)cn2O)c2csc(N)n2)C(=O)N1OS(=O)(=O)O` [Compound 26, (3S)-3-{(2Z)-2-(2-amino(1,3-thiazol-4-yl))-3-[(1,5-dihydroxy-4-oxo(2-hydropyridyl))methoxy]-3-azaprop-2-enoylamino}-4,4-dimethyl-2-oxoazetidinyl hydroxysulfonate], the MIC of antibiotic (Enterobacter cloacae P99; + 324 4 mg/L) was 2 µg/mL, the MIC of antibiotic (Enterobacter cloacae P99; + 324 + sulbactam, 4 mg/L each) was 2 µg/mL and the MIC of antibiotic (Enterobacter cloacae P99; + BRL427158 4 mg/L) was 2 µg/mL. The MIC of antibiotic (Enterobacter cloacae P99; + clavulanate 4 mg/L) was 8 µg/mL, the MIC of antibiotic (Enterobacter cloacae P99; antibiotic alone) was 16 µg/mL and the MIC of antibiotic (Serratia marcescens S6; + 324 4 mg/L) was “≦0.06 mg/L”. The MIC of antibiotic (Serratia marcescens S6; + 324 + sulbactam, 4 mg/L each) was less than 0.06 µg/mL, the MIC of antibiotic (Serratia marcescens S6; + BRL427158 4 mg/L) was “≦0.06 mg/L” and the MIC of antibiotic (Serratia marcescens S6; + clavulanate 4 mg/L) was “≦0.06 mg/L”. It also gave an MIC of antibiotic (Serratia marcescens S6; antibiotic alone) of less than 0.06 µg/mL, an MIC of antibiotic ([2]; + 324 4 mg/L) of 4 µg/mL and an MIC of antibiotic ([2]; + 324 + sulbactam, 4 mg/L each) of 2 µg/mL. It also gave an MIC of antibiotic ([2]; + BRL427158 4 mg/L) of 2 µg/mL, an MIC of antibiotic ([2]; + clavulanate 4 mg/L) of 2 µg/mL and an MIC of antibiotic ([2]; antibiotic alone) of 16 µg/mL. The MIC of antibiotic ([3]; + 324 4 mg/L) was 4 µg/mL, the MIC of antibiotic ([3]; + 324 + sulbactam, 4 mg/L each) was 2 µg/mL and the MIC of antibiotic ([3]; + BRL427158 4 mg/L) was 2 µg/mL. The MIC of antibiotic ([3]; + clavulanate 4 mg/L) was 4 µg/mL, the MIC of antibiotic ([3]; antibiotic alone) was 2 µg/mL and the MIC of antibiotic ([4]; + 324 4 mg/L) was 16 µg/mL. The MIC of antibiotic ([4]; + 324 + sulbactam, 4 mg/L each) was 1 µg/mL, the MIC of antibiotic ([4]; + BRL427158 4 mg/L) was 0.125 µg/mL and the MIC of antibiotic ([4]; + clavulanate 4 mg/L) was 0.5 µg/mL. The MIC of antibiotic ([4]; antibiotic alone) was 32 µg/mL, the MIC of antibiotic ([5]; + 324 4 mg/L) was 4 µg/mL and the MIC of antibiotic ([5]; + BRL427158 4 mg/L) was 0.5 µg/mL. It also gave an MIC of antibiotic ([5]; + clavulanic acid 4 mg/L) of 8 µg/mL, an MIC of antibiotic ([5]; antibiotic alone) of 16 µg/mL and an MIC of antibiotic ([7]; + 324 4 mg/L) of 2 µg/mL. For the same compound, the MIC of antibiotic ([7]; + BRL427158 4 mg/L) was 32 µg/mL, the MIC of antibiotic ([7]; + clavulanic acid 4 mg/L) was 1 µg/mL and the MIC of antibiotic ([7]; antibiotic alone) was 4 µg/mL. The MIC of antibiotic ([6]; + 324 4 mg/L) was 0.25 µg/mL, the MIC of antibiotic ([6]; + 324 + sulbactam, 4 mg/L each) was 0.25 µg/mL and the MIC of antibiotic ([6]; + BRL427158 4 mg/L) was 0.125 µg/mL. For the same compound, the MIC of antibiotic ([6]; + clavulanate 4 mg/L) was “≦0.06 mg/L”, the MIC of antibiotic ([6]; antibiotic alone) was less than 0.06 µg/mL and the MIC of antibiotic (Acinetobacter sp. J2; + 324 4 mg/L) was 4 µg/mL. For the same compound, the MIC of antibiotic (Acinetobacter sp. J2; + 324 + sulbactam, 4 mg/L each) was 2 µg/mL, the MIC of antibiotic (Acinetobacter sp. J2; + BRL427158 4 mg/L) was 0.5 µg/mL and the MIC of antibiotic (Acinetobacter sp. J2; + clavulanate 4 mg/L) was greater than 32 µg/mL. For the same compound, the MIC of antibiotic (Acinetobacter sp. J2; antibiotic alone) was 4 µg/mL.
`NC(=O)OCC1C(NC(=O)C(=NOCc2cc(=O)c(O)cn2O)c2csc(N)n2)C(=O)N1OCC(=O)O` (stereo not shown) [Compound 41] showed an MIC of antibiotic (Enterobacter cloacae P99; [8]) of 16 µg/mL, an MIC of antibiotic (Enterobacter cloacae P99; antibiotic alone) greater than 32 µg/mL and an MIC of antibiotic (Serratia marcescens S6; [8]) of 0.5 µg/mL. It also gave an MIC of antibiotic (Serratia marcescens S6; antibiotic alone) of 1 µg/mL, an MIC of antibiotic [2, 8] of 4 µg/mL and an MIC of antibiotic ([2]; antibiotic alone) of 4 µg/mL. It also gave an MIC of antibiotic [3, 8] of 4 µg/mL, an MIC of antibiotic ([3]; antibiotic alone) of 4 µg/mL and an MIC of antibiotic [4, 8] of 0.5 µg/mL. The MIC of antibiotic ([4]; antibiotic alone) was greater than 32 µg/mL, the MIC of antibiotic [6, 8] was 2 µg/mL and the MIC of antibiotic ([6]; antibiotic alone) was 1 µg/mL. The MIC of antibiotic (Acinetobacter sp. J2; [8]) was 16 µg/mL and the MIC of antibiotic (Acinetobacter sp. J2; antibiotic alone) was 16 µg/mL.
`NC(=O)OCC1C(NC(=O)C(=NOCc2cc(=O)c(O)cn2O)c2nc(N)sc2Cl)C(=O)N1OS(=O)(=O)O` (stereo not shown) [Compound 47] was tested, and the MIC of antibiotic (Enterobacter cloacae P99; [8]) was 16 µg/mL, the MIC of antibiotic (Enterobacter cloacae P99; [9]) was 32 µg/mL and the MIC of antibiotic (Enterobacter cloacae P99; antibiotic alone) was greater than 32 µg/mL. It also gave an MIC of antibiotic (Serratia marcescens S6; [8]) of 2 µg/mL, an MIC of antibiotic (Serratia marcescens S6; [9]) of 2 µg/mL and an MIC of antibiotic (Serratia marcescens S6; antibiotic alone) of 2 µg/mL. It also gave an MIC of antibiotic [2, 8] of 4 µg/mL, an MIC of antibiotic [2, 9] of 8 µg/mL and an MIC of antibiotic ([2]; antibiotic alone) of 8 µg/mL. The MIC of antibiotic [3, 8] was 2 µg/mL, the MIC of antibiotic [3, 9] was 4 µg/mL and the MIC of antibiotic ([3]; antibiotic alone) was 4 µg/mL. It also gave an MIC of antibiotic [4, 8] of 4 µg/mL, an MIC of antibiotic [4, 9] of 2 µg/mL and an MIC of antibiotic ([4]; antibiotic alone) greater than 32 µg/mL. It also gave an MIC of antibiotic [6, 8] of 1 µg/mL, an MIC of antibiotic [6, 9] of 1 µg/mL and an MIC of antibiotic ([6]; antibiotic alone) of 1 µg/mL. The MIC of antibiotic (Acinetobacter sp. J2; [8]) was greater than 32 µg/mL, the MIC of antibiotic (Acinetobacter sp. J2; [9]) was greater than 32 µg/mL and the MIC of antibiotic (Acinetobacter sp. J2; antibiotic alone) was greater than 32 µg/mL.

Source: patent publication US9346799B2, “Useful combinations of monobactam antibiotics with beta-lactamase inhibitors” (Basilea Pharmaceutica AG, priority 2005, dated 2016)
